In patent US8987193B2, “Nisin derivatives and the use thereof” (University College Cork—National University of Ireland, Cork, priority 2008, dated 2015):
“Also recorded” adds a separate entry of the source. Ends that are not written are not given here.

Key:
Staph. aureus DPC5245 = assay: Deferred antagonism assay; type: cell-based; details: producing strain; diameter of zone minus 5 mm; average of duplicates; St. aureus DPC5245
Procedure: (§1) Deferred antagonism assays were performed by replicating strains on GM17 or GM17 x-gal agar plates and allowing them to grow overnight before overlaying with either GM17/BHI/TS/MH agar (0.75% w/v agar) seeded with the appropriate indicator strain. Zone size was calculated as the diameter of the zone of clearing minus the diameter of bacterial growth (5 mm) For higher throughput screening of N20PXX, XM21VX, XXK22T and XXX banks deferred antagonism assays were performed by replicating strains using a 96 pin replicator (Boekel) or spotting 5 μl of a fresh overnight culture on GM17 agar plates and allowing them to grow overnight. […] Additional sets of indicators were employed to further assess/reassess the bioactivity of a number of strains. […] For well-diffusion assays molten agar was cooled to 48° C. and seeded with the appropriate indicator strain. The inoculated medium was rapidly transferred into sterile Petri plates in 50 ml volumes, allowed to solidify and dried. Wells (4.6 mm in diameter) were then made in the seeded plates. Purified nisin and mutant nisins were resuspended in 0.005% acetic acid, serially diluted, 50 μl volumes were dispensed into the aforementioned wells and the plates incubated at 37° C. overnight. Bioactivity was expressed as arbitrary units/ml (AU/ml) and calculated as the reciprocal of the highest dilution that gave a definite zone multiplied by the conversion factor (i.e. 20 when 50 μl was used) (Ryan et al., 1996).
(§2) As a consequence of the enhanced activities of K22T and K22S, a more in-depth investigation of this region was carried out. Saturation mutagenesis was undertaken to create a bank of nisin A hinge derivatives containing the vast majority of possible amino acid substitutions for each position. Although pPTPL was used successfully for random mutagenesis, its relatively large size of approx 10.5 kb was considered unsuitable for the complete plasmid PCR amplification approach utilized for saturation mutagenesis. A smaller (approx 6 kb) E. coli-L. lactis shuttle vector pCI372 was considered to be potentially more useful. Its suitability with respect to the in trans expression of nisA was confirmed by the ability of pDFO5 to restore the nisin positive phenotype. Saturation mutagenesis was performed on each codon using pDF05 and oligonucleotides (Table 5) that replace the specific codon with a NNK triplet, potentially encoding all 20 standard amino acids. Following complete plasmid amplification and introduction into the intermediate Top10 host, sequence analysis of a pooled bank of pDF05 derivatives confirmed randomization. Introduction of these variants into L. lactis NZ9800 allowed the expression of mutant nisin A peptides for further analysis. […] 46 residue conversions were isolated. All strains, regardless of bioactivity, were assessed with a view to comprehensively assessing the consequences of each individual hinge alteration.
(§3) Values are an average of duplicate experiments and represent zone size (diameter of zone minus diameter of bacterial growth (i.e. 5 mm) relative to that of the NZ9800 pCI372nisA control. X=Mutants not identified.

[1] = tested on: Strep. agalactiae ATCC13813; assay: Deferred antagonism assay; type: cell-based; details: producing strain, diameter of zone minus 5 mm, average of duplicates
Procedure: as §1, §2, §3

[2] = tested on: Staph. aureus ST528 (MRSA); assay: Deferred antagonism assay; type: cell-based; details: producing strain, diameter of zone minus diameter of bacterial growth (5 mm), average of duplicates
Procedure: as §1, §2, §3

L. lactis CBC7 = assay: Deferred antagonism assay; type: cell-based; set-up: key: + = Enhanced bioactivity relative to control; − = Bioactivity equal to or less than control; NA = no activity evident; details: XX and XXX hinge mutant producers
Procedure: as §1, §2

S. aureus CBC4 = assay: Deferred antagonism assay; type: cell-based; set-up: key: + = Enhanced bioactivity relative to control; − = Bioactivity equal to or less than control; NA = no activity evident; details: XX and XXX hinge mutant producers
Procedure: as §1, §2

L. lactis CBC8 = assay: Deferred antagonism assay; type: cell-based; set-up: key: + = Enhanced bioactivity relative to control; − = Bioactivity equal to or less than control; NA = no activity evident; details: XX and XXX hinge mutant producers
Procedure: as §1, §2

L. plantarum CBC6 = assay: Deferred antagonism assay; type: cell-based, Lactobacillus plantarum; set-up: key: + = Enhanced bioactivity relative to control; − = Bioactivity equal to or less than control; NA = no activity evident; details: XX and XXX hinge mutant producers
Procedure: as §1, §2

indicator strains = assay: Deferred antagonism assays, various indicator strains (summary); type: cell-based; details: for Target strain against which the hinge mutant was selected for enhanced bioactivity: XX and XXX banks, L. lactis HP*: enhanced or equal; for Target strain against which the hinge mutant was selected for enhanced bioactivity / Strain(s) against which the derivative (producing strain) displays enhanced bioactivity: relative to nisin A-producing control; for Strain(s) against which the derivative (producing strain) displays enhanced bioactivity: value = strains listed; for number of targets with enhanced activity: of the 8 additional targets tested
Procedure: as §1

L. monocytogenes CBC2 = assay: Deferred antagonism assay; type: cell-based, Listeria monocytogenes; set-up: key: + = Enhanced bioactivity relative to control; − = Bioactivity equal to or less than control; NA = no activity evident; details: L. mono CBC2; XX and XXX hinge mutant producers
Procedure: as §1, §2

L. monocytogenes CBC1 = assay: Deferred antagonism assay; type: cell-based, Listeria monocytogenes; set-up: key: + = Enhanced bioactivity relative to control; − = Bioactivity equal to or less than control; NA = no activity evident; details: L. mono CBC1; XX and XXX hinge mutant producers
Procedure: as §1, §2

L. monocytogenes CBC3 = assay: Deferred antagonism assay; type: cell-based, Listeria monocytogenes; set-up: key: + = Enhanced bioactivity relative to control; − = Bioactivity equal to or less than control; NA = no activity evident; details: L. mono CBC3; XX and XXX hinge mutant producers
Procedure: as §1, §2

| Substance | zone size relative to that of the NZ9800 pCI372nisA control (Staph. aureus DPC5245) [%] | zone size relative to that of the NZ9800 pCI372nisA control [1] [%] | zone size relative to that of the NZ9800 pCI372nisA control [2] [%] | bioactivity relative to a nisin A-producing control (L. lactis CBC7) | bioactivity relative to a nisin A-producing control (S. aureus CBC4) | bioactivity relative to a nisin A-producing control (L. lactis CBC8) | bioactivity relative to a nisin A-producing control (L. plantarum CBC6) | Target strain against which the hinge mutant was selected for enhanced bioactivity (indicator strains) | Strain(s) against which the derivative (producing strain) displays enhanced bioactivity (indicator strains) | bioactivity relative to a nisin A-producing control (L. monocytogenes CBC2) | bioactivity relative to a nisin A-producing control (L. monocytogenes CBC1) | bioactivity relative to a nisin A-producing control (L. monocytogenes CBC3) | number of targets with enhanced activity (indicator strains) | number of strains with bioactivity (indicator strains; of the 16 strains tested) |
| --- | --- | --- | --- | --- | --- | --- | --- | --- | --- | --- | --- | --- | --- | --- |
| K22E: nisin A derivative, hinge substitution K22E; no detectable production (ITSISLCTPGCKTGALMGCNMETATCHCSIHVSK; cysteine pairing not given here; also: lantibiotic nisin-A; UniProt P13068 24-57, looked up, variant K22E) | 0 | 0 | 0 |  |  |  |  |  |  |  |  |  |  |  |
| NisinA QLT (ITSISLCTPGCKTGALMGCQLTTATCHCSIHVSK; not fully specified (bridges); also: lantibiotic nisin-A: lanthionine rings and dehydrated residues, places not given here; UniProt P13068 24-57, looked up, variant N20Q M21L K22T) [nisin A hinge variant QLT (i.e. N20Q, M21L, K22T)] |  |  |  | − | − | − | − | Strep. agalactiae ATCC 13813 | S. agalactiae ATCC13813 | − | − | − |  |  |
| NisinA SVA (ITSISLCTPGCKTGALMGCSVATATCHCSIHVSK; not fully specified (bridges); also: lantibiotic nisin-A: lanthionine rings and dehydrated residues, places not given here; UniProt P13068 24-57, looked up, variant N20S M21V K22A) [nisin A hinge variant SVA (i.e. N20S, M21V, K22A)] |  |  |  | + | + | + | − | C. sporogenes UCC1 | C. sporogenes UCC1, L. monocytogenes CBC2 , CBC3, S. aureus CBC4 and L. lactis CBC7 , CBC8; also recorded: C. sporogenes UCC1, L. mono CBC2, CBC3, S. aureus | + | − | + | 5 |  |
| NisinA PIM |  |  |  | − | − | − | − | Staph. aureus RF122 | B. cereus UCC1 | − | − | − |  |  |
| NisinA PAK |  |  |  | − | + | − | − | Staph. aureus RF122/L. lactis HP* | S. aureus RF122 , CBC4 , NCDO1499 and DPC5246, L. lactis MG1363 , and L. monocytogenes 10403S and EGDe; also recorded: DPC5246, NCDO1499, L. mono 10403S and EGDe | − | − | − |  | 7 |
| NisinA GLA (ITSISLCTPGCKTGALMGCGLATATCHCSIHVSK; cysteine pairing not given here; also: lantibiotic nisin-A; UniProt P13068 24-57, looked up, variant N20G M21L K22A) [nisin A hinge variant GLA (i.e. N20G, M21L, K22A)] |  |  |  | − | − | − | − | B. cereus UCC1 | B. cereus UCC1 | − | − | − | 1 |  |
| NisinA PMQ |  |  |  | + | + | + | − | Strep. agalactiae ATCC 13813/B. cereus UCC1 | S. agalactiae ATCC13813, B. cereus UCC1, L. monocytogenes CBC3, S. aureus CBC4 , and L. lactis CBC7 , CBC8; also recorded: S. agalactiae ATCC13813, B. cereus UCC1, L. mono CBC3, | − | − | + | 4 |  |
| NisinA PLA (ITSISLCTPGCKTGALMGCPLATATCHCSIHVSK; not fully specified (bridges); also: lantibiotic nisin-A: lanthionine rings and dehydrated residues, places not given here; UniProt P13068 24-57, looked up, variant N20P M21L K22A) [nisin A hinge variant PLA (i.e. N20P, M21L, K22A)] |  |  |  | − | + | − | − | B. cereus UCC1 | B. cereus UCC1 and S. aureus CBC4 | − | − | − |  |  |
| NisinA PMC |  |  |  | + | + | − | − | B. cereus UCC1 | L. monocytogenes CBC3, S. aureus CBC4 and L. lactis CBC7; also recorded: L. mono CBC3, S. aureus CBC4, L. lactis CBC7 | − | − | + | 3 |  |
